Reference: patent publication US4489091A, “Antilipemic and anti-inflammatory compositions containing sulfonate derivatives” (Taiho Pharmaceutical Company Limited, priority 1980, dated 1984)

Key:
[1] = target: esterase; test: Esterase inhibiting activity; assay type: biochemical; conditions: rat liver microsome esterase, methyl butyrate substrate, pH 8.0, 37° C., 60 minutes; read-out: IC50 for esterases
Procedure: A 10 micromole quantity of methyl butyrate in a 50% ethanol solution is added as a substrate to a specified amount of buffer solution containing 0.1 mole of trishydrochloric acid (pH 8.0). To the mixture is further added a 50% ethanol solution of the compound of the invention, immediately followed by addition of an esterase solution prepared from a purified microsome fraction of the liver of a rat (adjusted to hydrolyze 9 micromoles of methyl butyrate at 37° C. in one hour) as an enzyme solution. The mixture is reacted at 37° C. for 60 minutes.
After the reaction, alkaline hydroxylamine is added to the mixture to form a hydroxamic acid derivative of methyl butyrate, and a ferric salt is added to the derivative. The resulting red color is colorimetrically determined (at a wavelength of 540 nm) to determine the amount of remaining methyl butyrate. The esterase inhibiting ratios of the present compound at least at three concentrations are plotted as ordinate, and the logarithms of the concentrations as abscissa to obtain a line, which gives the 50% inhibition concentration (IC50).

[2] = Acute toxicity; conditions: rat, in vivo, po
From the text: Six-week-old male Wistar rats weighing 180 to 200 g are used, 5 rats in each group. Each compound of the invention is suspended in a 30% aqueous solution of polyethylene glycol 6000 and orally given to the rat at the dosage shown in Table 2. The animals are checked for poisoning, body weight and survival to determine the LD50 value.

[3] = target: chymotripsin (Bos taurus, UniProt P00766); test: Chymotripsin inhibiting activity; assay type: biochemical; conditions: 0.5 h; compound 1×10^-4 mole, ATEE substrate, pH 8.0, 37° C.; read-out: Percent chymotripsin inhibition
Procedure: Chymotripsin (0.1 unit) serving as an enzyme solution is added to a specified quantity of buffer solution containing 0.1 mole of trishydrochloric acid (pH 8.0). To the mixture is further added a 50% ethanol solution of the compound of the invention so that the resulting mixture contains the compound in a concentration of 1×10^-4 mole. The mixture is reacted at 37° C. for 20 minutes.
On completion of the reaction, 10 micromoles of N-acetyl-L-thyrosine ethyl ester (ATEE) serving as a substrate is added to the mixture, and the resulting mixture is reacted at 37° C. for 30 minutes.
After the completion of the reaction, the amount of remaining ATEE is determined by the same hydroxamic acid method as above. The percent chymotripsin inhibition is given by [formula] wherein A is the amount of hydrolyzed esters in the reaction system not containing the compound of the invention, and B is the amount of hydrolyzed esters in the reaction system containing the present compound.

[4] = tested on: cholesterol; test: Antilipemic effect: percent total cholesterol inhibition in plasma of rats given an olive oil-cholesterol mixture; assay type: in vivo, male Wistar rats; conditions: plasma 8 hours after dosing, Wistar rat; for inhibition in vivo at 100 mg/kg: oral 100 mg/kg, read-out: Anti-lipemic effect, CS (percent cholesterol inhibition)
Method in brief: (§1)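 Male Wistar rats, seven weeks old, 200 to 220 g, 5 per group, dosed orally at 100 or 200 mg/kg in olive oil-cholesterol mixture (15% cholesterol) at 10 ml/kg. Plasma triglycerides measured at 2 hours, total cholesterol at 8 hours, by enzymatic kits; percent inhibition calculated relative to vehicle control and untreated normal groups.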

[5] = tested on: triglycerides; test: Antilipemic effect: percent triglycerides inhibition in plasma of rats given an olive oil-cholesterol mixture; assay type: in vivo, male Wistar rats; conditions: plasma 2 hours after dosing, Wistar rat; for inhibition in vivo at 100 mg/kg: oral 100 mg/kg, read-out: Anti-lipemic effect, TG (percent triglycerides inhibition); for inhibition in vivo at 200 mg/kg: oral 200 mg/kg (asterisked values), read-out: Anti-lipemic effect, TG (percent triglycerides inhibition), asterisked
Method in brief: as §1

[6] = reported in the literature; cited from earlier work

| SMILES | IC50 [1] [µM] | LD50 [2] [mg/kg] | inhibition at 100 µM [3] [%] | inhibition in vivo at 100 mg/kg [4] [%] | inhibition in vivo at 100 mg/kg [5] [%] | Side effects [6] | Anti-lipemic effect, CS (percent cholesterol inhibition), asterisked ([4]; oral 200 mg/kg (asterisked values)) [%] | inhibition in vivo at 200 mg/kg [5] [%] |
| --- | --- | --- | --- | --- | --- | --- | --- | --- |
| CCCC(=O)COS(=O)(=O)c1cc(C)c(C)cc1C [Compound 116] | 1.3 | > 2000 | 0 | 82 | 90 |  |  |  |
| CCOc1ccc(S(=O)(=O)OCC(=O)CC(CC)CC)cc1 [Compound 137] | 10 | > 4000 | 14 | 72 | 81 |  |  |  |
| CCOc1ccc(S(=O)(=O)OCC(=O)CCCC(C)C)cc1 [Compound 145] | 3.3 | > 3000 | 87 | 62 | 61 |  |  |  |
| CCCCC(CC)C(=O)COS(=O)(=O)c1ccc(OCC)cc1 (stereo not shown) [Compound 50] | 21 | > 4500 | 31 | 94 | 80 |  |  |  |
| CCCCCCCC(=O)COS(=O)(=O)c1ccc(OC)cc1 [Compound 37] | 0.15 | > 3000 | 91 | 62 | 62 |  |  |  |
| CCCCCC(C)C(=O)COS(=O)(=O)c1c(C)cc(C)cc1C (stereo not shown) [Compound 162] | 2 | > 4000 | 32 | 77 | 75 |  |  |  |
| CCCCCCC(=O)COS(=O)(=O)c1ccc(C)cc1 [Compound 19] | 3.4 | > 3000 | 100 | 41 | 78 |  |  |  |
| CCCC(CC)C(=O)COS(=O)(=O)c1ccc(OCC)cc1 (stereo not shown) [Compound 134] | 560 | > 4500 | 2 | 65 | 82 |  |  |  |
| O=C(O)c1cccnc1 [nicotinic acid] |  |  |  |  |  | pruritus and cutaneous flushing due to vasodilatation, gastrointestinal disorders, abnormalities in liver function and glucose intolerance |  |  |
| CCCC(CCC)C(=O)COS(=O)(=O)c1ccc(OCC)cc1 [Compound 135] | 56 | > 4500 | 10 | 92 | 91 |  |  |  |
| CCCC(CC)C(=O)COS(=O)(=O)c1c(C)cc(C)cc1C (stereo not shown) [Compound 151] | 32 | > 3000 | 8 | 77 | 83 |  |  |  |
| CCCCCC(C)C(=O)COS(=O)(=O)c1ccc(C)cc1 (stereo not shown) [Compound 130] | 4 | > 3000 | 52 | 51 | 72 |  |  |  |
| CCCCCCC(=O)COS(=O)(=O)c1ccccc1 [Compound 9] | 0.068 | > 3000 | 96 | 62 | 88 |  |  |  |
| CCCCCC(=O)COS(=O)(=O)c1ccccc1 [Compound 8] | 0.072 | > 2000 | 100 | 60 | 87 |  |  |  |
| CCCC(=O)COS(=O)(=O)c1cc(C)ccc1C [Compound 111] | 0.28 | > 2000 | 4 | 51 | 73 |  |  |  |
| Cc1cc(C)c(S(=O)(=O)OCC(=O)CC(C)C)c(C)c1 [Compound 149] | 1 | > 3000 | 7 | 67 | 81 |  |  |  |
| CCCCCCCCC(=O)COS(=O)(=O)c1c(C)cc(C)c(C)c1C [Compound 98] | 2.7e-05 | > 4000 | 26 |  |  |  | 71 | 70 |
| CCCCC(=O)COS(=O)(=O)c1c(C)cc(C)c(C)c1C [Compound 96] | 0.00016 | > 3000 | 12 | 71 | 68 |  |  |  |
| CCCCC(CC)C(=O)COS(=O)(=O)c1ccccc1C (stereo not shown) [Compound 32] | 0.35 | > 3000 | 0.4 | 43 | 70 |  |  |  |
| CCCCC(CCCC)C(=O)COS(=O)(=O)c1ccc(C)cc1 [Compound 129] | 7 | > 3000 | 30 | 45 | 66 |  |  |  |
| CCCCCCCC(=O)COS(=O)(=O)c1ccc(OCC)cc1 [Compound 47] | 0.59 | > 4000 | 67 | 60 |  |  |  | 82 |
| CCCCCC(=O)COS(=O)(=O)c1ccc(C)cc1 [Compound 18] | 1.6 | > 3000 | 77 | 40 | 94 |  |  |  |
